According to patent US7547806B2, “Tannate salt of rasagiline” (Teva Pharmaceutical Industries, Ltd., priority 2006, dated 2009):

Legend:
Assay type in all cases: physicochemical
[1] = Hygroscopicity after one month storage in closed containers; design: key: 1: non-hygroscopic, no visible change observed; 2: slightly hygroscopic, aggregation and lumping developed, loss of flowability; 3: hygroscopic, semi-solid material; 4: deliquescent, liquefied syrup-like product; conditions: after one month in closed containers at room temperature in atmospheric air (relative humidity ~50-80%)
Procedure: The hygroscopicity was determined after one month in closed containers at room temperature in atmospheric air (relative humidity ˜50-80%)
The observed samples could be divided into four groups in accordance to their hygroscopic properties:
1=non-hygroscopic, no visible change observed
2=slightly hygroscopic, aggregation and lumping developed, loss of flowability
3=hygroscopic, semi-solid material
4=deliquescent, liquefied syrup-like product

[2] = Water content by thermal gravimetric analysis (TGA); conditions: solid product
Procedure: (§1) Thermal gravimetric analysis (TGA) was applied for measuring amounts of volatiles (residual solvents and water) in the solid. Water content was measured by Karl Fischer method (KF).

[3] = Water content by Karl Fischer method (KF); conditions: solid product
Procedure: as §1

For `C#CCN[C@@H]1CCc2ccccc21` [Rasagiline base, R(+)-N-propargyl-l-aminoindan], the Hygroscopicity [1] was 1, the “Water content, % By TGA” value [2] was < 0.1% and the “Water content, % By KF” value [3] was 0.1%.
